# Test results: patent US20100137222A1, “Basic Peptides and Their Use as Combined Antibacterial-Antifungine Agents” (NOVABIOTICS LIMITED, priority 2007, published 2010)
# Read-outs that look alike come from different tables or passages of the source. Marks after values point to notes of the source that are not given here. No end group written: not given here.
# Key:
# [1] = test system: P. acnes DSM1897; assay type: cell-based, Propionibacterium acnes
# Experimental: Broth Dilution Antibacterial Susceptibility Testing
# The sensitivity of relevant bacterial strains to peptides was determined using Clinical Laboratory Standard Institute (CLSI; formerly NCCLS) Approved Standards. Bacterial susceptibility was tested using “Methods for Dilution Antimicrobial Susceptibility Tests for Bacteria That Grow […]; Approved Standard—Seventh Edition M7-A7”
# [2] = test system: M. furfur DSM6170; assay type: cell-based, Malassezia furfur
# Experimental: Broth Dilution Antifungal Susceptibility Testing
# The sensitivity of relevant fungal strains to peptides was determined using Clinical Laboratory Standard Institute (CLSI; formerly NCCLS) Approved Standards. Yeast susceptibility was tested using “Reference Method for Broth Dilution Antifungal Susceptibility Testing of Yeasts; Approved Standard—Second Edition M27-A”.
# [3] = Table 3, starred values (*value in mg/ml)
# [4] = Table 1, starred values (*value in mM)
Molecule,Antimicrobial Activity (MIC) P. acnes DSM1897 ([1]; DSM1897),also measured
"RRVRVR [NP304, RRVRVR]",>2 mM,
"(R)n, n = 28-86, HCl salt (5-15 kDa) [NP121]",,"MIC against Malassezia furfur DSM6170 [2, 3]: 0.25* mg/ml"
"RRVVRR [NP305, RRVVRR]",>2 mM,
CC(=O)N[C@@H](CCCNC(=N)N)C(=O)N[C@@H](CCCNC(=N)N)C(=O)N[C@@H](CCCNC(=N)N)C(=O)N[C@@H](CCCNC(=N)N)C(=O)N[C@@H](CCCNC(=N)N)C(=O)N[C@@H](CCCNC(=N)N)C(=O)N[C@@H](CCCNC(=N)N)C(=O)N[C@@H](CCCNC(=N)N)C(=O)N[C@@H](CCCNC(=N)N)C(=O)N[C@@H](CCCNC(=N)N)C(=O)N[C@@H](CCCNC(=N)N)C(=O)N[C@@H](CCCNC(=N)N)C(=O)N[C@@H](CCCNC(=N)N)C(N)=O [NP338],0.005 mM,"Antimicrobial Activity (MIC) M. furfur DSM6170 ([2]; DSM6170): <0.0156 mM; MIC against Malassezia furfur DSM6170 ([2]; Table 3, unstarred values): <0.0156 mM"
"RRVRVRR [NP307, RRVRVRR]",>2 mM,
RRRVVRRR [NP308],>2 mM,
PKTKAKAKAKKGKGKD [NP336],>2 mM,
"KKKKKKK [NP344, KKKKKKK]",>10* mM,Antimicrobial Activity (MIC) M. furfur DSM6170 ([2]; DSM6170): 1* mM
"RWRWR [NP320, RWRWR]",1 mM,
"(I-K)n, n = 100-200, HCl salt [NP101]",,"Antimicrobial Activity (MIC) P. acnes DSM1897 ([1]; Table 1, unstarred values): 0.1 mg/mL"
KKKKKEGKKQEKMLD [NP333],>2 mM,
KKKKKKKKK [NP345],2.5* mM,
"(H)n, n = 32-161, HCl salt (5-25 kDa) [NP131]",,"MIC against Malassezia furfur DSM6170 [2, 3]: 0.0625* mg/ml"
"RRWRR [NP322, RRWRR]",2 mM,
"(R)n, n = 86-402, HCl salt (15-70 kDa) [NP122]",,"MIC against Malassezia furfur DSM6170 [2, 3]: 0.25* mg/ml"
"N=C(N)NCCC[C@@H](N)C(=O)N[C@H](CCCNC(=N)N)C(=O)N[C@H](CCCNC(=N)N)C(=O)N[C@H](CCCNC(=N)N)C(=O)N[C@H](CCCNC(=N)N)C(=O)N[C@H](CCCNC(=N)N)C(=O)N[C@H](CCCNC(=N)N)C(=O)N[C@H](CCCNC(=N)N)C(=O)N[C@H](CCCNC(=N)N)C(=O)N[C@H](CCCNC(=N)N)C(=O)N[C@H](CCCNC(=N)N)C(=O)N[C@H](CCCNC(=N)N)C(=O)N[C@H](CCCNC(=N)N)C(=O)O [NP339, dRdRdRdRdRdRdRdRdRdRdRdRdR]",0.02 mM,Antimicrobial Activity (MIC) M. furfur DSM6170 ([2]; DSM6170): 0.008 mM
RRRWWRRR [NP327],0.125 mM,
"KKKKK [NP343, KKKKK]",>10* mM,
"(H)n, n = >32, HCl salt (>5 kDa) [NP132]",,"MIC against Malassezia furfur DSM6170 [2, 3]: 0.0625* mg/ml"
"RRRVRRR [NP306, RRRVRRR]",2 mM,
KVRQGTLKKAR [NP335],>2 mM,

Molecule,Antimicrobial Activity (MIC) P. acnes DSM1897 ([1]; DSM1897),also measured
"RRRWRRR [NP325, RRRWRRR]",2 mM,
"(I-K)n, n = 7-27, HBr salt [NP106]",,"Antimicrobial Activity (MIC) P. acnes DSM1897 ([1]; Table 1, unstarred values): 0.125 mg/mL; Antimicrobial Activity (MIC) M. furfur DSM6170 ([2]; Table 1, unstarred values): 0.5 mg/mL"
"CC(=O)N[C@H](CCCNC(=N)N)C(=O)N[C@H](CCCNC(=N)N)C(=O)N[C@H](CCCNC(=N)N)C(=O)N[C@H](CCCNC(=N)N)C(=O)N[C@H](CCCNC(=N)N)C(=O)N[C@H](CCCNC(=N)N)C(=O)N[C@H](CCCNC(=N)N)C(=O)N[C@H](CCCNC(=N)N)C(=O)N[C@H](CCCNC(=N)N)C(=O)N[C@H](CCCNC(=N)N)C(=O)N[C@H](CCCNC(=N)N)C(=O)N[C@H](CCCNC(=N)N)C(=O)N[C@H](CCCNC(=N)N)C(N)=O [NP340, Ac-dRdRdRdRdRdRdRdRdRdRdRdRdR-NH2]",0.02 mM,Antimicrobial Activity (MIC) M. furfur DSM6170 ([2]; DSM6170): 0.008 mM
RRWRRWRR [NP328],0.5 mM,
"RVRVR [NP301, RVRVR]",>2 mM,
KLTKPKPQAESKKKKK [NP332],>2 mM,
GKKEKPEKKVKK [NP331],>2 mM,
KKKKKKKKKKKKKKK [NP348],,"Antimicrobial Activity (MIC) P. acnes DSM1897 [1, 4]: 0.0625* mM; Antimicrobial Activity (MIC) M. furfur DSM6170 [2, 4]: 0.25* mM"
KKKDKVKK [NP334],>2 mM,
N=C(N)NCCC[C@H](NC(=O)[C@H](CCCNC(=N)N)NC(=O)[C@H](CCCNC(=N)N)NC(=O)[C@H](CCCNC(=N)N)NC(=O)[C@H](CCCNC(=N)N)NC(=O)[C@H](CCCNC(=N)N)NC(=O)[C@H](CCCNC(=N)N)NC(=O)[C@H](CCCNC(=N)N)NC(=O)[C@H](CCCNC(=N)N)NC(=O)[C@H](CCCNC(=N)N)NC(=O)[C@H](CCCNC(=N)N)NC(=O)[C@H](CCCNC(=N)N)NC(=O)[C@@H](N)CCCNC(=N)N)C(=O)O [NP337],0.0025 mM,Antimicrobial Activity (MIC) M. furfur DSM6170 ([2]; DSM6170): 0.03125 mM
"RRWWRR [NP324, RRWWRR]",0.25 mM,
"RRWRWRR [NP326, RRWRWRR]",0.25 mM,
"RRWWR [NP321, RRWWR]",1 mM,
RRRRVVRRRR [NP310],0.5 mM,"Antimicrobial Activity (MIC) M. furfur DSM6170 ([2]; DSM6170): 0.5 mM; MIC against Malassezia furfur DSM6170 ([2]; Table 3, unstarred values): 0.5 mM"
"RRVVR [NP302, RRVVR]",>2 mM,
RRVRRVRR [NP309],1 mM,
"RRVRR [NP303, RRVRR]",>2 mM,
RRVVRRVVRR [NP311],2 mM,
N=C(N)NCCC[C@H](NC(=O)[C@H](CCCNC(=N)N)NC(=O)[C@H](CCCNC(=N)N)NC(=O)[C@H](CCCNC(=N)N)NC(=O)[C@H](CCCNC(=N)N)NC(=O)[C@H](CCCNC(=N)N)NC(=O)[C@H](CCCNC(=N)N)NC(=O)[C@H](CCCNC(=N)N)NC(=O)[C@H](CCCNC(=N)N)NC(=O)[C@H](CCCNC(=N)N)NC(=O)[C@@H](N)CCCNC(=N)N)C(=O)O [NP317],<0.0156 mM,"Antimicrobial Activity (MIC) M. furfur DSM6170 ([2]; DSM6170): <0.0156 mM; MIC against Malassezia furfur DSM6170 ([2]; Table 3, unstarred values): <0.0156 mM"
"RRWRWR [NP323, RRWRWR]",0.5 mM,
